Laboratory results published in patent US20260083769A1, “2-Aminopropane-1,3-Diol-Capped Cationic Peptoids for Nucleic Acid Delivery” (NUTCRACKER THERAPEUTICS, INC., priority 2022, published 2026).
“Also recorded” adds a separate entry of the source. Where a SMILES comes first, the peptide text is derived from it. [ ]: non-standard residue; d: D form. N(2-ethylhexyl)Gly = CCCCC(CC)CNCC(=O)O; Gly(N-dodecyl) = CCCCCCCCCCCCNCC(=O)O; N(CH(CH2OH)2)Gly = O=C(O)CNC(CO)CO; NHexGly = CCCCCCNCC(=O)O

Legend:
[1] = Apparent particle pKa, TNS fluorescence assay; format: physicochemical; conditions: Table 5; apparent particle pKa of delivery vehicle
Description: The apparent particle pKa was assessed by a TNS fluorescence assay. Briefly, particles were diluted to 130 uM total lipid in TNS buffer ranging in pH 3-11 for 10 minutes with […] of TNS probe. The fluorescence was measured at room temperature in a plate reader ex 320/em 445. Fluorescence intensity was normalized to the minimal and maximal values and the pKa was determined by a 3 parameter fit to determine the half maximum of the curve.

BALB/c mice = experiment: In vivo fLuc mRNA expression after IV dose, whole body and organ bioluminescence; conditions: for fLuc (luciferase) expression in vivo: BALB/c mice, IV, luminescence 6 hours after dose, lipid block screen; for luciferase expression in vivo, comparison of monomer order isomers: Compound 31 versus Compound 41
Source text: In one particular instance, peptoids disclosed herein were formulated into delivery vehicles by first dissolving in ethanol along with DSPC, cholesterol, and DMG-PEG2000 at weight ratio of 20:1.8:7.2:1.8 (Formulation D22 in Table 3, above), then mixed with firefly luciferase (fLuc) mRNA dissolved in an aqueous buffer at a volume ratio of 1:3 via microfluidic nanoprecipitation on a turbulent mixing device, resulting in small, low dispersity particles. Physical particle properties were characterized. Delivery vehicles with initial sizes larger than 120 nm were not brought forward into in vivo screening as liver fenestrae primarily accommodate LNPs sized under 100 nm. In vivo expression of delivery vehicles comprising peptoids with varied headgroups was evaluated using fLuc expression in BALB/c mice 6 hours after IV dose (FIG. 1). […] The aminoethyl and aminopropyl headgroups both show preferential expression in lung (FIG. 2), potentially due to the high basicity of the pendant primary amine, as groups with higher pKas are known to accumulate in that organ. […] While spleen and lung selectivity merit further optimization for future therapeutic applications, liver-selective targets were used for further studies herein to prepare for systemic delivery of antibody targets and maximize their serum expression with anti-RSV cargo.
Intravenous administration. The delivery vehicle complexes disclosed herein are effective for in vivo administration of Fluc mRNA to BALB/c mice through multiple routes of administration. In general, delivery system complexes were administered at a dose of 0.5 mg/kg via a tail-vein injection, and the resulting bioluminescence was quantified after 6 hours. Organ-specific bioluminescence was quantified by sacrificing the treated animal, dissecting out the organs of interest, and separately quantifying the resulting bioluminescence
In one particular instance, to investigate how the peptoid lipid block impacts in vivo expression, delivery vehicles with diameter larger than 120 nm were excluded and remaining candidates were administered IV to BALB/c mice. Luminescence was measured after 6 hours and the resulting expression in liver, lung and spleen were quantified. Even without changing the cationic headgroup, luciferase expression spanned 4 orders of magnitude as a result of altering the lipid block in this series. […] In vivo expression of all candidates was then fit to a multi-parameter model containing the 4 input parameters to understand the individual contributions of each factor to overall performance. […] Contour plots of the impact of these factors on expression (all using Ehx as the branched/unsaturated monomer) are shown in FIG. 4.
For imaging studies, female BALB/c mice (6-8 weeks old) were obtained and acclimatized for a minimum of 3 days prior to experiments. The animals were maintained on a 12 hour light cycle in a temperature and humidity controlled room. A daily health check was performed as well as food and water check. For dosing, mice were injected with 2.5 μg fLuc mRNA-containing delivery vehicles intravenously in 100 μL total injection volume. At 6 hours post-injection, mice were anesthetized with isoflurane, and injected intraperitoneally with 30 mg/mL D-luciferin at a dose of 10 μL per gram bodyweight intraperitoneally. Imaging was done 10 minutes post D-luciferin injection using an IVIS® Spectrum Imaging System. Immediately after in vivo imaging, mice were terminally bled by cardiac puncture and euthanized. The organs of interest were harvested, placed in black 24-well plates, and imaged. Living Image® software was used to quantify the total photon flux in regions of interest. For secreted protein studies, mice were injected with aRSV mRNA-containing delivery vehicles intravenously in 100 μL total injection volume. Mice were euthanized after 24 hours, with serum collection at 6 and 24 hours post-injection. […]

[2] = Percent encapsulated mRNA, RiboGreen assay; format: physicochemical; conditions: Table 5; delivery vehicle comprising the peptoid, Formulation D22, fLuc mRNA
Outline: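 Modified RiboGreen fluorescence assay on Fluc mRNA formulations diluted to 500 ng/ml in Tris-EDTA. Samples were read with and without Triton X-100 lysis (2% for 10 min in one protocol). Percent encapsulation was derived from the fluorescence ratio of intact versus lysed particles.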

SMILES	pKa (TNS) [1]	fLuc (luciferase) expression in vivo (BALB/c mice)	% Encapsulation [2]	luciferase expression in vivo, comparison of monomer order isomers (BALB/c mice)
CCCCCCN(CC(N)=O)C(=O)CN(CC(CC)CCCC)C(=O)CN(CC(CC)CCCC)C(=O)CN(CCCCCC)C(=O)CN(CC(CC)CCCC)C(=O)CN(CC(CC)CCCC)C(=O)CNC(CO)CO (stereo not shown) [Compound 12] (H-[N(CH(CH2OH)2)Gly][N(2-ethylhexyl)Gly][N(2-ethylhexyl)Gly][NHexGly][N(2-ethylhexyl)Gly][N(2-ethylhexyl)Gly][NHexGly]-NH2)	6.018	top expressers; also recorded: highest overall fLuc expression	97.4%	
CCCCCCCCCCCCN(CC(=O)N(CC(=O)N(CC(=O)N(CCCCCCCCCCCC)CC(=O)N(CC(=O)N(CC(N)=O)CC(CC)CCCC)CC(CC)CCCC)CC(CC)CCCC)CC(CC)CCCC)C(=O)CNC(CO)CO (stereo not shown) [Compound 31] (H-[N(CH(CH2OH)2)Gly][Gly(N-dodecyl)][N(2-ethylhexyl)Gly][N(2-ethylhexyl)Gly][Gly(N-dodecyl)][N(2-ethylhexyl)Gly][N(2-ethylhexyl)Gly]-NH2)	6.523		86.9%	within error
CCCCCCCCCCCCN(CC(=O)N(CC(N)=O)CC(CC)CCCC)C(=O)CN(CCCCCC)C(=O)CN(CC(CC)CCCC)C(=O)CN(CCCCCCCCCCCC)C(=O)CN(CCCCCC)C(=O)CNC(CO)CO (stereo not shown) [Compound 34] (H-[N(CH(CH2OH)2)Gly][NHexGly][Gly(N-dodecyl)][N(2-ethylhexyl)Gly][NHexGly][Gly(N-dodecyl)][N(2-ethylhexyl)Gly]-NH2)	6.374	top expressers	71.2%	
CCCCCCCCCCCCN(CC(=O)N(CC(=O)N(CC(=O)N(CCCCCCCCCCCC)CC(=O)N(CC(N)=O)CC(CC)CCCC)CC(CC)CCCC)CC(CC)CCCC)C(=O)CN(CC(CC)CCCC)C(=O)CNC(CO)CO (stereo not shown) [Compound 41] (H-[N(CH(CH2OH)2)Gly][N(2-ethylhexyl)Gly][Gly(N-dodecyl)][N(2-ethylhexyl)Gly][N(2-ethylhexyl)Gly][Gly(N-dodecyl)][N(2-ethylhexyl)Gly]-NH2)	6.068	top expressers	94.2%	within error
